Measured values from ChEMBL document CHEMBL1149971, “A general approach toward the design of inhibitors of serine proteinases: inhibition of human leukocyte elastase by substituted dihydrouracils” (Bioorg Med Chem Lett, 1992).

Target: T1, Neutrophil elastase (Homo sapiens) (UniProt P08246)
T1 sequence (whole entry): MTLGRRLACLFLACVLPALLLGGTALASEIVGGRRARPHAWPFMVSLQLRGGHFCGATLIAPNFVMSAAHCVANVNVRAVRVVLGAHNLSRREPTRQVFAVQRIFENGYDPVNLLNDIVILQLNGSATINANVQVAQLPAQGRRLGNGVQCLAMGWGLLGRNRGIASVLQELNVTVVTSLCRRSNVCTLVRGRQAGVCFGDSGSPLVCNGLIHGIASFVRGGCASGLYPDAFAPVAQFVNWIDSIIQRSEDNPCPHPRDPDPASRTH
Assay: Bimolecular rate constant for the inhibition of human leukocyte elastase

Bimolecular inhibition rate constant (kobs/[I])	Compound
800 M⁻¹ s⁻¹	CS(=O)(=O)ON1C(=O)CC(Cc2ccccc2)NC1=O (centres undefined)
1980 M⁻¹ s⁻¹	O=C1CC(Cc2ccccc2)NC(=O)N1OS(=O)(=O)/C=C/c1ccccc1 (centres undefined)
480 M⁻¹ s⁻¹	O=C1NCC(Cc2ccccc2)C(=O)N1OS(=O)(=O)/C=C/c1ccccc1 (centres undefined)
3310 M⁻¹ s⁻¹	CS(=O)(=O)ON1C(=O)NCC(Cc2ccccc2)C1=O (centres undefined)
